The assay relates to HIV-1 (NL4-3 strain). Description: Assay for inhibition of HIV replication (VIKING) in infected MT4-GFP cells. The note with it: infected cells at 48 h / 24 h. The format is cell-based. As for the experimental part: MT4-GFP cells (250,000 cells/ml) were bulk-infected with HIV-1 (NL4-3 strain) at low multiplicity of infection (MOI) in RPMI+10% FBS for 24 hours. […] Test compounds were serial-diluted in DMSO on ECHO. The infected MT4-GFP cells were added to a 384-well poly-D-lysine coated black plate with clear bottom in which the diluted test compounds were placed. The cells were seeded at 8,000 cells per well and the final DMSO concentration was 0.4%. The infected cells (Green GFP cells) were quantified at both 24 and 48 hours post incubation using Acumen eX3. Viral reproductive ratio (R0) was determined using the number of infected cells at 48 hours divided by the number of infected cells at 24 hours. Percent viral growth inhibition was calculated by [1−(R−Rtripledrug)/(RDMSO−Rtripledrug)]*100.

Where [1] appears, read: MT4-GFP cells infected with HIV-1 NL4-3, 0% NHS (normal human serum), read-out: VIKING IP50 (nM) with 0% NHS.
The mark [2] stands for this setting: MT4-GFP cells infected with HIV-1 NL4-3, 100% NHS (normal human serum), read-out: VIKING IP50 (nM) with 100% NHS.
[3] abbreviates: Human immunodeficiency virus 1, NL43, MT4-GFP cells infected with HIV-1 NL4-3, 0% NHS (normal human serum), read-out: VIKING IP50 (nM) with 0% NHS.
The mark [4] stands for this setting: Human immunodeficiency virus 1, NL43, MT4-GFP cells infected with HIV-1 NL4-3, 100% NHS (normal human serum), read-out: VIKING IP50 (nM) with 100% NHS.

The structures appear in SMILES notation. Read-outs that look alike come from different tables or passages of the source.

For `CCN1C(=O)c2c(O)c(=O)c(C(=O)NCc3ccc(F)cc3F)cn2C2(CCOC2)C1OC` (single isomer, unassigned) [Compound 37], the IC50 under setting [1] turned out to be 3 nM and the IC50 under setting [2] turned out to be 663 nM.
`COCCN1CC2(CCOC2)n2cc(C(=O)NCc3ccc(F)cc3F)c(=O)c(O)c2C1=O` (stereo not shown) [Compound 21]: the IC50 under setting [1] came to 3 nM and the IC50 under setting [2] came out at 129 nM.
`CCN1CC2(CCOC2)n2cc(C(=O)NCc3ccc(F)cc3F)c(=O)c(O)c2C1=O` (stereo not shown) [Compound 16]: the IC50 under setting [3] amounted to 2 nM and the IC50 under setting [4] turned out to be 4530 nM.
On to `COCCN1CC2(CCOC2)n2cc(C(=O)NCc3ccc(F)c(Cl)c3F)c(=O)c(O)c2C1=O` (stereo not shown) [Compound 26], for which the IC50 is, setting by setting: under setting [1], 1 nM; under setting [2], 1140 nM.
In the case of `CN1CC2(CCOCC2)n2cc(C(=O)NCc3ccc(F)cc3F)c(=O)c(O)c2C1=O` [Compound 7], the IC50 is, setting by setting: under setting [3], 6 nM; under setting [4], 113 nM.
For `CCN1C(=O)c2c(O)c(=O)c(C(=O)NCc3ccc(F)cc3F)cn2C2(COC2)C1OC` (single isomer, unassigned) [Compound 34], the IC50 under setting [1] came to 5 nM and the IC50 under setting [2] worked out at 4920 nM.
Turning to `CCN1CC2(CCOC2)n2cc(C(=O)NCc3ccc(F)cc3F)c(=O)c(O)c2C1=O` (stereo not shown) [Compound 17], the IC50 is 2 nM under setting [1] and more than 8400 nM under setting [2].
Turning to `COCCN1CC2(CCOC2)n2cc(C(=O)NCc3cccc(Cl)c3F)c(=O)c(O)c2C1=O` (stereo not shown) [Compound 29], the IC50 is, setting by setting: under setting [3], 1 nM; under setting [2], 1140 nM.
As for `CN1CC2(CCN(S(C)(=O)=O)C2)n2cc(C(=O)NCc3ccc(F)cc3F)c(=O)c(O)c2C1=O` (single isomer, unassigned) [Compound 48], the IC50 is 10 nM under setting [1] and 112 nM under setting [2].
With `CC(C)OC(=O)OCOP(=O)(CCN1C[C@@]2(CCOC2)n2cc(C(=O)NCc3ccc(F)cc3F)c(=O)c(O)c2C1=O)OCOC(=O)OC(C)C` (single isomer, unassigned) [Compound 54], the IC50 runs as follows: under setting [3], 5 nM; under setting [4], 1600 nM.
Turning to `COCCN1CC2(CCOC2)n2cc(C(=O)NCc3ccc(F)c(Cl)c3F)c(=O)c(O)c2C1=O` (stereo not shown) [Compound 25], the IC50 is 1 nM under setting [3] and 1730 nM under setting [4].
As for `CN1CC2(CCOC2)n2cc(C(=O)NCc3ccc(F)cc3F)c(=O)c(O)c2C1=O` (stereo not shown) [Compound 15], the IC50 is, setting by setting: under setting [1], 4 nM; under setting [2], 108 nM.
For `COCCN1CC2(CCOC2)n2cc(-c3nnc(Cc4ccc(F)cc4F)s3)c(=O)c(O)c2C1=O` (stereo not shown) [Compound 40], the IC50 runs as follows: under setting [1], 4 nM; under setting [2], 691 nM.
With `COCN1CC2(CCOC2)n2cc(C(=O)NCc3ccc(F)cc3F)c(=O)c(O)c2C1=O` (stereo not shown) [Compound 18], the IC50 under setting [3] was 3 nM and the IC50 under setting [2] is more than 8400 nM.
In the case of `COCCN1CC2(CCCOC2)n2cc(C(=O)NCc3ccc(F)cc3F)c(=O)c(O)c2C1=O` (single isomer, unassigned) [Compound 9], the IC50 stood at 2 nM under setting [1] and 814 nM under setting [2].
On the same counts, the results for `CN1CC2(CCNC2)n2cc(C(=O)NCc3ccc(F)cc3F)c(=O)c(O)c2C1=O` (single isomer, unassigned) [Compound 52] are 18 nM and 210 nM.
With `CN(C)N1CC2(CCOCC2)n2cc(C(=O)NCc3ccc(F)cc3F)c(=O)c(O)c2C1=O` [Compound 2], the IC50 reads like this: under setting [3], 19 nM; under setting [4], 1510 nM.
In the case of `CN1CCC2(C1)CN(C)C(=O)c1c(O)c(=O)c(C(=O)NCc3ccc(F)cc3F)cn12` (single isomer, unassigned) [Compound 49], the IC50 under setting [3] is 2 nM and the IC50 under setting [4] is 90 nM.
For the compound `COCCCN1CC2(CCOC2)n2cc(C(=O)NCc3ccc(F)cc3F)c(=O)c(O)c2C1=O` (single isomer, unassigned) [Compound 13], the IC50 is, setting by setting: under setting [1], 2 nM; under setting [2], 36 nM.
In the case of `CCOP(=O)(CCN1CC2(CCOC2)n2cc(C(=O)NCc3ccc(F)cc3F)c(=O)c(O)c2C1=O)OCC` (stereo not shown) [Compound 31], the IC50 reads like this: under setting [3], 17 nM; under setting [4], 232 nM.

For the origin of these results see patent US10221186B2, “Spirocyclic heterocyclic compounds useful as HIV integrase inhibitors” (priority 2014, dated 2019).
